Test [1] has as its system Drosophila suzukii antennae. In words: Coupled GC-EAD of bread dough headspace volatiles on SWD antennae. The settings on record: adult female SWD antennae; adsorbent extract of bread dough; authentic standards 10 ng/μl. The procedure: Adsorbent Sampling from Bread Dough: The bread dough bait consisted of whole-wheat flour (17.25 g), sugar (2 g), dry active bread yeast (0.325 g), apple cider vinegar (1 ml), and water (25 ml) (Cha, D. H., et al., J. Econ. Entomol., 111: 645-652 (2018a)). Headspace volatiles were collected from 10 g bread dough ball placed in a screened specimen cup (130 ml) by using 2.41 closed volatile collection chambers (ARS, Inc., Gainesville, Fla.) with one air inlet adapter (7 mm ID) on the top and an outlet adapter (7 mm ID) on the bottom wall. Clean air from a filtering and delivery system (ARS Inc., Gainesville, Fla.) was pushed into the chamber at 0.7 L/min through the top inlet port, and volatiles from the dough were pushed out through volatile traps (activated charcoal adsorbent filters, ORBO™32-small, Supelco Inc., Bellefonte, Pa.) on the bottom of the chamber. An additional ORBO™ filter was used to ensure that no breakthrough occurred. For each sample of dough (2 dough samples total), adsorbent collections were made over a 2-day period at room temperature using the same volatile trap. Volatiles were eluted with 600 μl methylene chloride every 24 h from the filters of a given dough sample and combined across the total of the collecting days (from 2 dough samples). The combined extract was kept at −20° C. and subjected to as chromatography-electroantennographic detection (GC-EAD) and gas chromatography-mass spectrometry (GC-MS) analyses.
Coupled Gas Chromatographic-Electroantennographic Detection (GC-EAD): Coupled GC-EAD analysis was performed as described previously (Cha, D. H., J. Chem. Ecol., 34: 1180-1189 (2008); Cha, D. H., et al., J. Chem. Ecol., 38: 1419-1431 (2012)) using a Hewlett Packard 5890 Series II gas chromatograph equipped with either a non-polar DB-5 ms capillary column (30 m×0.25 mm ID, 0.25 μm film thickness; Agilent Technologies, Wilmington, Del.) or polar DB-WAXetr capillary column (30 m×0.25 mm ID, 0.25 μm film thickness; Agilent Technologies, Wilmington, Del.) in the splitless mode with 1 min sampling time. The oven temperature was programmed at 40° C. for 5 min, then increased by 15° C./min to 250° C., and held for 5 min. Injector and detector temperatures were set at 250° C. Nitrogen gas was the carrier at a flow of 2 ml/min. The column effluent was split 1:1 in the oven via a “Y” glass splitter (Supelco). One arm of the splitter led to the flame ionization detector (FID) (250° C.) and the other to the heated EAD port (250° C.). Whole head preparations were made of individual flies, age 5-9 day, for GC-EAD analysis (Cha et al. 2012). The head was separated from the body and its antennae positioned between two gold wire electrodes immersed in saline filled (Drosophila ringer solution; 46 mmol NaCl, 182 mmol KCl, 3 mmol CaCl2, and 10 mmol Tris HCl at pH 7.2) micropipettes in an acrylic holder. The antennal holder was placed inside a humidified condenser and maintained at 5° C. The output signal from the antenna was amplified by a customized high input impedance DC amplifier and recorded on an HP 3390A integrator.
Chemical Analysis: GC-MS was carried out with an Agilent 5975MS coupled with a Agilent 6890GC equipped with either a DB-5 ms capillary column (30 m×0.25 mm ID, 0.25 μm film thickness; Agilent Technologies, Wilmington, Del.) or DB-WAXetr capillary column (30 m×0.25 mm ID, 0.25 μm film thickness; Agilent Technologies, Wilmington, Del.). Helium was the carrier gas (1.0 ml/min constant flow). The GC temperature program was the same as used for the GC-EAD analyses. The MS transfer-line was held at 260° C., the MS source at 230° C., and the MS quad at 150° C. Mass spectra were taken in EI mode (at 70 eV) in the range from 40 m/z to 350 m/z with a scanning rate of 4.58 scan/s. GC-MS data were processed with the MDS-Chemstation software (Agilent Technologies). […]

For test [2], the system named is Drosophila suzukii. In words: Field test 2 with known 2-pentylfuran release rate: SWD infestation of field raspberries. Type of test: in vivo. The settings on record: 14.18 mg/h from two sachets, 48 h, N=15. The procedure: Field test 2 with known 2-pentylfuran release rate: We evaluated the effect of a known release rate of 2-pentylfuran on SWD infestation using 15 small plots of primocane raspberries (each plot=three 7 m rows of Heritage raspberries with 2.4 m between rows and with approximately 11 raspberries planted within each row) planted at different sites on research farms at Cornell AgriTech (plots separated by at least 0.5 km). The plantings were established in 2018 and the trial was conducted in the fall of 2019 as ripe raspberries were present along with high levels of SWD infestations in the area. At each plot we identified two fruiting canes (one for 2-pentylfuran treatment and one for control) that had large green fruit present separated by at least 3 m. After hand removal of any pink or ripe fruit, on 12 Sep. […] Ripe berries were removed from the canes, counted, weighed, placed in rearing cups (540 ml deli cups with approximately 1 cm of water agar at base with a perforated lid), and placed in a walk-in growth chamber (25° C., 55% r.h., 16:8 L:D) for 6 days at which time SWD were enumerated (mostly pupae, a few large larvae). Fruits from canes that were collected to estimate the background level of SWD infestation were evaluated for SWD infestation using the same method as for the canes used to test 2-pentylfuran. […]

As for `CCCCCc1ccco1` [2-pentylfuran], the “GC-EAD activity (antennal response)” value in test [1] was “active”. Besides, in test [2], the “reduction of SWD infestation per berry relative to control” value was 56%.

(Values after patent US20210251228A1, “METHODS FOR REPELLING DROSOPHILA SPECIES USING 2-PENTYLFURAN” (The United States of America, as represented by the …, priority 2020, published 2021).)
